Laboratory results published in ChEMBL document CHEMBL3813654, “De Novo Design at the Edge of Chaos” (J Med Chem, 2016).
Blank lines part the entries; values can stand above or below the compound they belong to.

How the values were obtained:
[1] = target: Cyclin-dependent kinase 4/cyclin D2 (Homo sapiens, UniProt P11802+P30279); assay: Inhibition of human recombinant CDK4/Cyclin D2 expressed in baculovirus infected insect Sf9 cells using G1 peptide as substrate after 45 mins by Top Count method in presence of [33P]-ATP
Procathepsin L = Procathepsin L (Homo sapiens, UniProt P07711); assay: Activation of human liver cathepsin L using Z-FR-AMC as substrate measured for 120 mins by fluorescence assay
MAP kinase p38 = MAP kinase p38 (Homo sapiens, UniProt O15264+Q15759+Q16539+P53778); assay: Inhibition of human P38 expressed in yeast using T669 as substrate preincubated for 30 mins followed by [gamma-32P]Mg/ATP addition measured after 25 mins by beta scintillation counting method
Collagenase 3 = Collagenase 3 (Homo sapiens, UniProt P45452); assay: Inhibition of human recombinant MMP13 (85 to 255 residues) expressed in Escherichia coli using 5-FAM/QXLTM as substrate by fluorometric assay
Protease = Protease (Human immunodeficiency virus 1, UniProt Q9YQ12); assay: Inhibition of HIV1 protease
[2] = target: cGMP-inhibited 3',5'-cyclic phosphodiesterase 3B (Homo sapiens, UniProt Q13370); assay: Inhibition of human recombinant PDE3B expressed in insect Sf9 cells assessed as residual cAMP level after 30 mins by HTRF assay
[3] = target: Serine/threonine-protein kinase PLK1 (Homo sapiens, UniProt P53350); assay: Inhibition of inactivated PLK1 in human HeLa cells using casein as substrate by immunoprecipitation assay; assay type: cell-based
Estrogen receptor = target: T1, Estrogen receptor (Homo sapiens, UniProt P03372); assay: Displacement of [3H]-17beta-estradiol from human recombinant ERalpha expressed in rabbit reticulocytes; assay type: cell-based
T1 sequence (P03372 whole entry): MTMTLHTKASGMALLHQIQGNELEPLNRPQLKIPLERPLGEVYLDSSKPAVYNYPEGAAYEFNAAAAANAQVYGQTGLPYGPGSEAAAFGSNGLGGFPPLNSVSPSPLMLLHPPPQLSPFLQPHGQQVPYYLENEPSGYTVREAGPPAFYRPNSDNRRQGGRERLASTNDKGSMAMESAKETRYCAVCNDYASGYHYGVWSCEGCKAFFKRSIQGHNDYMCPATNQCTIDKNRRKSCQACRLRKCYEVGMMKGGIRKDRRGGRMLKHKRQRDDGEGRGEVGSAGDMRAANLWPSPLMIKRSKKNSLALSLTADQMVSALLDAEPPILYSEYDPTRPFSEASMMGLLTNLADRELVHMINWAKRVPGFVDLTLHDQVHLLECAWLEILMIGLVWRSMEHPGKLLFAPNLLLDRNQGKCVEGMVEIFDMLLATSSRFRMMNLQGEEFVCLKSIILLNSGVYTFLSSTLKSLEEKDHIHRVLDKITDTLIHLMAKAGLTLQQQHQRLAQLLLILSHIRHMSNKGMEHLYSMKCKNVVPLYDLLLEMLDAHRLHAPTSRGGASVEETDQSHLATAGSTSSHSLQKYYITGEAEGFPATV

Estrogen receptor beta = Estrogen receptor beta (Homo sapiens, UniProt Q92731); assay: Displacement of [3H]-17beta-estradiol from human recombinant ERbeta expressed in rabbit reticulocytes; assay type: cell-based
Chain of Estrogen receptor beta (Q92731 whole entry): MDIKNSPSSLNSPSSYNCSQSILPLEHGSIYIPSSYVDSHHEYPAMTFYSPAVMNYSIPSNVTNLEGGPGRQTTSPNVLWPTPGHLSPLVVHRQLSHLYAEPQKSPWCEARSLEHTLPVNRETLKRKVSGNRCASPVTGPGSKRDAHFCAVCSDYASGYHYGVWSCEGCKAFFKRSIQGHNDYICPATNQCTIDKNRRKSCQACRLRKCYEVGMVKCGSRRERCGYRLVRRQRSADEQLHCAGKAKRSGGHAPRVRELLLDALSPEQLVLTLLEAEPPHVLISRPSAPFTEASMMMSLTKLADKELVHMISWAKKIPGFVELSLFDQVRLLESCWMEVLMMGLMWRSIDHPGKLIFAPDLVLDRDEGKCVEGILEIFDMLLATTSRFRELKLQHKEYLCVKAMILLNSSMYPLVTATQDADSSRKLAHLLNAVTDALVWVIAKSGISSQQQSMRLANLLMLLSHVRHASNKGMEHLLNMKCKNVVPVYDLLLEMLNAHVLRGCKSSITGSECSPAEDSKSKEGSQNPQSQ

Chain of Procathepsin L (P07711 whole entry): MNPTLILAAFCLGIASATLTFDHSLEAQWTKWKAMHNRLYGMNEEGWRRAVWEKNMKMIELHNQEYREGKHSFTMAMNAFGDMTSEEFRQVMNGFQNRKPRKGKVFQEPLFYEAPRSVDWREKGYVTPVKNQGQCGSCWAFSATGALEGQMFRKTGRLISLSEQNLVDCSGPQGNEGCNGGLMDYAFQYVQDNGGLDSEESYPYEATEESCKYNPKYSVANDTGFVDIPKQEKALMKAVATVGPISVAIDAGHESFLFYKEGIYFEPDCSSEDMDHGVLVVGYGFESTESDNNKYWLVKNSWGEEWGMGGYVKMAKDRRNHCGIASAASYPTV
Chain of Serine/threonine-protein kinase PLK1 (P53350 whole entry): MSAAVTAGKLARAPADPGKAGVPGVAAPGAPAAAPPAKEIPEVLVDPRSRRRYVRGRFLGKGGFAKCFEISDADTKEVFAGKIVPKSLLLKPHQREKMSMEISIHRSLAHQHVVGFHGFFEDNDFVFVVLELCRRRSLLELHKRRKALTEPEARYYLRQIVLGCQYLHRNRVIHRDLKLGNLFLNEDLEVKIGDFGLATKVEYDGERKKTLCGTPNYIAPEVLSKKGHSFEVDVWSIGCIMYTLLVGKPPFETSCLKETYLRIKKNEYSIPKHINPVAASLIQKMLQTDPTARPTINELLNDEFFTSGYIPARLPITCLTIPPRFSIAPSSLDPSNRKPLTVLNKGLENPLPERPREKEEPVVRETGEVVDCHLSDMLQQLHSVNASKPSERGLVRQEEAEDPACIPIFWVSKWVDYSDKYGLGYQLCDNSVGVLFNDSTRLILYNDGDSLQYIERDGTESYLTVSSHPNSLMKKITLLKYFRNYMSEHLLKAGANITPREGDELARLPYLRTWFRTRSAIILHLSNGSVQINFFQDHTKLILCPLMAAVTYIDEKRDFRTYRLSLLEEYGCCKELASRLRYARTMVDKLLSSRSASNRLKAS
Chain of Protease (Q9YQ12 whole entry): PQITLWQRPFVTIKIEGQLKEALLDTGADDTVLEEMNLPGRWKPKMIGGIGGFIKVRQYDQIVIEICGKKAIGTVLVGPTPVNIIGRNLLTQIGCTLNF
Chain of Cyclin-dependent kinase 4/cyclin D2 (P11802 whole entry): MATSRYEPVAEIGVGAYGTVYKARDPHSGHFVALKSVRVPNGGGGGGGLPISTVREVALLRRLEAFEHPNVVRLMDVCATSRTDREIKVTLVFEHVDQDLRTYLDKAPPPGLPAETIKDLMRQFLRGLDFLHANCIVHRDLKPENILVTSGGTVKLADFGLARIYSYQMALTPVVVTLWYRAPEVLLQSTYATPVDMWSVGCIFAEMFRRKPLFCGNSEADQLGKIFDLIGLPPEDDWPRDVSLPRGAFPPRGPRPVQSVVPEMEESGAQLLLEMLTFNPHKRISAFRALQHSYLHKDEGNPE
Chain of Cyclin-dependent kinase 4/cyclin D2 (P30279 whole entry): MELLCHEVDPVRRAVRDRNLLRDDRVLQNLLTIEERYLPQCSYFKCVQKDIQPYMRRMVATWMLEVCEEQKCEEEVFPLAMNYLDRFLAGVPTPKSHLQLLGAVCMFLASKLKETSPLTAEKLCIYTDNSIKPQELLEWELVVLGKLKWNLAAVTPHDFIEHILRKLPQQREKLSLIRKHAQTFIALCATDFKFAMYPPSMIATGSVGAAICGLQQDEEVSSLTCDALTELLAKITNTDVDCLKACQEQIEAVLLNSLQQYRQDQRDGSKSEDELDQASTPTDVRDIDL
Chain of cGMP-inhibited 3',5'-cyclic phosphodiesterase 3B (Q13370 whole entry): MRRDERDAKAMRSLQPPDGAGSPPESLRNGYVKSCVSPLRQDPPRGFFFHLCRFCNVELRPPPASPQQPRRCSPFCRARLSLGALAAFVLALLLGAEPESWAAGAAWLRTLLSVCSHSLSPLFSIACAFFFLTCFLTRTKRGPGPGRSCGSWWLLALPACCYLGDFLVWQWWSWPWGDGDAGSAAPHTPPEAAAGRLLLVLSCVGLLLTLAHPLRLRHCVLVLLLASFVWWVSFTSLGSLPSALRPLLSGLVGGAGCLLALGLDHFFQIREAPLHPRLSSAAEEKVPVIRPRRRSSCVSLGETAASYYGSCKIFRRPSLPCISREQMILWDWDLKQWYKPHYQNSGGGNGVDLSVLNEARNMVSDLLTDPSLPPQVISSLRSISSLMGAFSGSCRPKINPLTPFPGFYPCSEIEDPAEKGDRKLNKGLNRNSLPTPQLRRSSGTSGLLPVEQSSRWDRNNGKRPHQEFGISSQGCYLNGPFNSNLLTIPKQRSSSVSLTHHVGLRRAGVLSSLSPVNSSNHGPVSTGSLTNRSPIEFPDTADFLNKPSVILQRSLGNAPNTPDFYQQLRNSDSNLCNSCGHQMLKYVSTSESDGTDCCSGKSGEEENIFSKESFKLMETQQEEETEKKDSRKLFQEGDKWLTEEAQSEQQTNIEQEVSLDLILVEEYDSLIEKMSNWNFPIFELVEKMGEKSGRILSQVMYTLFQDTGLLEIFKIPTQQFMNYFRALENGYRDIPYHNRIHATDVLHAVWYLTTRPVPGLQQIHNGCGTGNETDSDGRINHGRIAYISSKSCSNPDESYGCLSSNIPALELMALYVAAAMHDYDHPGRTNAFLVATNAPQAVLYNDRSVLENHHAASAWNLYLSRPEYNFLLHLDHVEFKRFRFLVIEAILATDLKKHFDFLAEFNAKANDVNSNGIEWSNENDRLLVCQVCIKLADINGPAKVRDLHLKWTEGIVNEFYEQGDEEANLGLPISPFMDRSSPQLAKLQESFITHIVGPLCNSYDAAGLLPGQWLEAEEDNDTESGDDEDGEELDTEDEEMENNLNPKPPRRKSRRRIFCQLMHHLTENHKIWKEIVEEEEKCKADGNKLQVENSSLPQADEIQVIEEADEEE

EC50 (Procathepsin L): 6000 nM
Compound: O=C(COc1ccccc1)N[C@@H](Cc1ccccc1)C(=O)O[C@H]1CCOC1

IC50 (MAP kinase p38): 160 nM
Compound: Cc1ccc(-c2ncn(CC3CC3)c2-c2ccncc2)cc1

IC50 (Protease): 160 nM
Compound: CC(C)(C)NC(=O)[C@@H]1C[C@@H]2CCCC[C@@H]2CN1C[C@@H](O)[C@H](Cc1ccccc1)NC(=O)OC1CCCC1

IC50 (Estrogen receptor): 9 nM
IC50 (Estrogen receptor beta): 190 nM
Compound: CCc1ccc2c(c1)C(c1ccc(OCCN3CCOCC3)cc1)Cc1cc(O)cc(C)c1-2 (centres undefined)

The remaining lines, values behind:

Compound: O=C(Nc1ccccn1)Nc1cccc2c1-c1ccccc1C2=O
IC50 [1]: 100 nM

Compound: O=C(O)CCCOc1cccc(CNC(=O)C#Cc2cn(Cc3ccc(C(=O)O)cc3)c(=O)[nH]c2=O)c1
IC50 (Collagenase 3): 6 nM

Compound: O=C1CCC(c2ccc(NC(=O)Cc3cccnc3)cc2)=NN1
EC50 [2]: 6000 nM

Compound: FC(F)(F)c1ccc(OC(CCNCc2ccccn2)c2ccccc2)cc1 (centres undefined)
IC50 [3]: 50 nM
